The assay in a line: Antiproliferative activity against mouse ASZ cells assessed as reduction in cell viability after 72 hrs by MTS/PMS assay. It is filed as functional.
What is called GI50 is the concentration at which growth is held to half of that of the control. Take `CN(C)c1cccc(-c2ccc(C3C/C=C/CCC(=O)OCCCOC3=O)cc2)c1` (stereo not drawn): the GI50 was no less than 75 µM.

Take `O=C1CC/C=C/CC(c2ccc(-c3cccc(O)c3)cc2)C(=O)OCCCO1` (stereo not drawn): the GI50 came out at 12.1 µM.

Consider `O=C1CC/C=C/CC(c2ccc(-c3ccncc3)cc2)C(=O)OCCCO1` (stereo not drawn), for which the 50% growth inhibitory concentration (GI50) is no less than 75 µM.

With `O=C1CC/C=C/CC(c2ccc(-c3cnn(Cc4ccccc4)c3)cc2)C(=O)OCCCO1` (stereo not drawn), the GI50 is no less than 100 µM.

`O=C1CC/C=C/CC(c2ccc(-c3ccccc3)cc2)C(=O)OCCCO1` (stereo not drawn): the GI50 was no less than 100 µM.

`COc1cc(-c2ccc(C3C/C=C/CCC(=O)OCCCOC3=O)cc2)c(OC)nn1` (stereo not drawn): the 50% growth inhibitory concentration (GI50) turned out to be 19.7 µM.

As to `O=C1CC/C=C/CC(c2ccc(-c3cccnc3)cc2)C(=O)OCCCO1` (stereo not drawn), the GI50 was 40.9 µM.

For the compound `Cc1noc(C)c1-c1ccc(C2C/C=C/CCC(=O)OCCCOC2=O)cc1` (stereo not drawn), the GI50 is no less than 75 µM.

The values above are taken from ChEMBL document CHEMBL4665873, “Exploring the physicochemical and antiproliferative properties of biaryl-linked [13]-macrodilactones” (2020).
